Assay results taken from ChEMBL document CHEMBL1127002, “Substituted pyrrolidin-2-one biphenyltetrazoles as angiotensin II antagonists” (Bioorg Med Chem Lett, 1993).
The source made the active and inactive calls. The calls are words filed in the database; no cut-off is given here.

Columns and labels:
[1] = species on record: Oryctolagus cuniculus; test: Tested for inhibitory activity against angiotensin II induced contraction in rabbit aortic rings; format: functional; details: Aorta, read-out: pA2 (converted)
[2] = target: T1, Type-1 angiotensin II receptor (Bos taurus, UniProt P25104); test: Concentration that gives 50% inhibition for binding of 125-I-[Sar1, IIe8] angiotensin to Angiotensin II receptor, type 1 in bovine adrenal cortex membrane.; format: cell membranes
T1 sequence (P25104 whole entry): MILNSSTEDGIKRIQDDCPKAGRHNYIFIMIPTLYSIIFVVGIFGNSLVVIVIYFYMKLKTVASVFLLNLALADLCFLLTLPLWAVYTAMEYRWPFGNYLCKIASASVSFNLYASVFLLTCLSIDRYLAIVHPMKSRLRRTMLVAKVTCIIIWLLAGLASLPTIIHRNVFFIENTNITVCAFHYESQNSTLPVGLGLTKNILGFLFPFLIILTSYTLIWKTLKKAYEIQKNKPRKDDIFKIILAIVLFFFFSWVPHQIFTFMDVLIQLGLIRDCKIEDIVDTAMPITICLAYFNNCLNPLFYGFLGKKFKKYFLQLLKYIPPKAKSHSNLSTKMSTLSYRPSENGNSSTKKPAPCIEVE

[3] = tested on: Rattus norvegicus; test: Tested for antihypertensive activity in spontaneously hypertensive rats (SHR) after oral administration; A - Compound shows antihypertensive activity.; format: functional, organism-based

Row | SMILES | Kb [1] [nM] | IC50 [2] [nM] | Activity [3]
1 | CCOC(=O)/C=C1\C2CC=CCC2C(=O)N1Cc1ccc(-c2ccccc2-c2nn[nH]n2)cc1 (centres undefined) | 31.6 |  | 
2 | CCOC(=O)/C=C1\C2CCCCC2C(=O)N1Cc1ccc(-c2ccccc2-c2nn[nH]n2)cc1 (centres undefined) | 3.98 |  | 
3 | CCOC(=O)/C=C1\N(Cc2ccc(-c3ccccc3-c3nnn[nH]3)cc2)C(=O)CC12CCCCC2 | 12.6 | 140 | 
4 | CCOC(=O)/C=C1\N(Cc2ccc(-c3ccccc3-c3nn[nH]n3)cc2)C(=O)CC1(CC)CC | 12.6 | 100 | 
5 | CCOC(=O)/C=C1\C2C3CCCC(CC3)C2C(=O)N1Cc1ccc(-c2ccccc2-c2nn[nH]n2)cc1 (centres undefined) | 20 |  | A
6 | CCOC(=O)/C=C1\N(Cc2ccc(-c3ccccc3-c3nn[nH]n3)cc2)C(=O)CC12CCCCCC2 | 3.98 |  | Active
7 | CCOC(=O)/C=C1\C2C3C=CC(CC3)C2C(=O)N1Cc1ccc(-c2ccccc2-c2nn[nH]n2)cc1 (centres undefined) | 6.31 |  | 
8 | CCOC(=O)/C=C1\C2C(C(=O)N1Cc1ccc(-c3ccccc3-c3nn[nH]n3)cc1)C1CCC2C1(c1ccccc1)c1ccccc1 (centres undefined) | > 1000 |  | 
9 | CCOC(=O)/C=C1\N(Cc2ccc(-c3ccccc3-c3nnn[nH]3)cc2)C(=O)CC12CCCCCC2 |  | 60 | 
10 | CCOC(=O)/C=C1\C2C(C(=O)N1Cc1ccc(-c3ccccc3-c3nn[nH]n3)cc1)C1CCC2C1(C)C (centres undefined) | 251 |  | 
11 | CCOC(=O)/C=C1\N(Cc2ccc(-c3ccccc3-c3nn[nH]n3)cc2)C(=O)CC1(C)CC (centres undefined) | 25.1 | 60 | 
12 | CCOC(=O)/C=C1\C2C(C(=O)N1Cc1ccc(-c3ccccc3-c3nn[nH]n3)cc1)C1C=CC2(OC)CC1 (centres undefined) | 5.01 |  | 
13 | CCOC(=O)/C=C1\C2C3CCC(C3)C2C(=O)N1Cc1ccc(-c2ccccc2-c2nn[nH]n2)cc1 (centres undefined) | 1 |  | 
14 | CCOC(=O)/C=C1\C2C3CCC(O3)C2C(=O)N1Cc1ccc(-c2ccccc2-c2nn[nH]n2)cc1 (centres undefined) | 3.98 |  | 
15 | CCCCc1nc(Cl)c(CO)n1Cc1ccc(-c2ccccc2-c2nnn[nH]2)cc1 [LOSARTAN] | 1.58 | 425 | 
16 | CCOC(=O)/C=C1\C2C3C=CC(CCC3)C2C(=O)N1Cc1ccc(-c2ccccc2-c2nn[nH]n2)cc1 (centres undefined) | 39.8 |  | 
17 | CCOC(=O)/C=C1\C2C3CCC(CC3)C2C(=O)N1Cc1ccc(-c2ccccc2-c2nn[nH]n2)cc1 (centres undefined) | 10 |  | A
18 | CCOC(=O)/C=C1\N(Cc2ccc(-c3ccccc3-c3nn[nH]n3)cc2)C(=O)CC12CCCC2 | 3.16 | 250 | 
19 | CCOC(=O)/C=C1/C(C)CC(=O)N1Cc1ccc(-c2ccccc2-c2nn[nH]n2)cc1 (centres undefined) | 316 | 3100 | 
20 | CCOC(=O)/C=C1\C2C3C=CC(C3)C2C(=O)N1Cc1ccc(-c2ccccc2-c2nn[nH]n2)cc1 (centres undefined) | 3.98 |  | 
